Experimental data reported in the NIST ThermoML archive (doi:10.1021/acs.jced.8b01120).
± gives the expanded uncertainty stated by the source.

Test: xn = mol fraction of the nth substance listed
Settings: 100 kPa, Liquid; for speed of sound: Single path-length method; for mass density: Vibrating tube method

CCCCN(CCCC)CCCC [tributylamine] + COC(C)=O
Settings	mass density, 293.15 K [kg/m3]	mass density, 298.15 K [kg/m3]	mass density, 303.15 K [kg/m3]	mass density, 308.15 K [kg/m3]	mass density, 313.15 K [kg/m3]	speed of sound, 293.15 K [m/s]	speed of sound, 298.15 K [m/s]	speed of sound, 303.15 K [m/s]	speed of sound, 308.15 K [m/s]	speed of sound, 313.15 K [m/s]
x1 = 0.0501	913.106 ± 2	906.572 ± 2	900.184 ± 2	893.938 ± 2	887.487 ± 2	1184.6 ± 4	1160.4 ± 4	1140 ± 4	1113.4 ± 4	1094.9 ± 4
x1 = 0.1009	893.96 ± 2	887.924 ± 2	881.943 ± 2	875.744 ± 2	869.547 ± 2	1188.9 ± 4	1165.2 ± 4	1144.5 ± 4	1118 ± 4	1099.6 ± 4
x1 = 0.2003	864.36 ± 2	858.987 ± 2	853.583 ± 2	848.346 ± 2	842.744 ± 2	1197.3 ± 4	1174.1 ± 4	1153.7 ± 4	1128.1 ± 4	1109.7 ± 4
x1 = 0.2941	843.967 ± 2	838.976 ± 2	833.982 ± 2	828.97 ± 2	823.819 ± 2	1205.6 ± 4	1182.6 ± 4	1161 ± 4	1137.7 ± 4	1118.6 ± 4
x1 = 0.4009	826.428 ± 2	821.765 ± 2	817.081 ± 2	812.409 ± 2	807.525 ± 2	1213.9 ± 4	1191.9 ± 4	1171.2 ± 4	1148.1 ± 4	1129.6 ± 4
x1 = 0.5004	813.696 ± 2	809.242 ± 2	804.881 ± 2	800.355 ± 2	795.747 ± 2	1222.5 ± 4	1200.4 ± 4	1180.6 ± 4	1158.4 ± 4	1138.9 ± 4
x1 = 0.6008	803.345 ± 2	799.107 ± 2	794.831 ± 2	790.504 ± 2	786.225 ± 2	1230.4 ± 4	1209.5 ± 4	1190.4 ± 4	1167.9 ± 4	1149.1 ± 4
x1 = 0.7008	794.987 ± 2	790.893 ± 2	786.764 ± 2	782.571 ± 2	778.432 ± 2	1239 ± 4	1218.5 ± 4	1198.7 ± 4	1177.6 ± 4	1159 ± 4
x1 = 0.8004	788.147 ± 2	784.162 ± 2	780.197 ± 2	776.154 ± 2	772.052 ± 2	1247.6 ± 4	1227 ± 4	1207.9 ± 4	1187.8 ± 4	1168.5 ± 4
x1 = 0.9003	782.234 ± 2	778.353 ± 2	774.459 ± 2	770.516 ± 2	766.597 ± 2	1255.7 ± 4	1236.1 ± 4	1217 ± 4	1197.3 ± 4	1177.8 ± 4
x1 = 1	777.01 ± 2	773.283 ± 2	769.55 ± 2	765.81 ± 2	762.06 ± 2	1264.2 ± 4	1245.2 ± 4	1226.2 ± 4	1207.4 ± 4	1188.8 ± 4
